Laboratory results reported in patent publication US8604085B2, “Bupropion hydrobromide polymorphs” (Valeant International Bermuda, priority 2008, dated 2013).
Where two headings read alike, the source gives them in different places.

Experiments:
Format in all cases: physicochemical
[1] = Comparison of the stability of several bupropion salts in open and closed vials at about 40 degrees C. and about 75% relative humidity (HPLC); details: about 40 degrees C., about 75% relative humidity, various periods of time
Description: A comparison of the stability of several bupropion salts, including the hydrobromide, hydrochloride, maleate, tosylate, fumarate, succinate, tartrate and citrate salts, was performed by placing these salts in both open and closed vials in a stability chamber kept at about 40 degrees C. and about 75% relative humidity for various periods of time (e.g. 10 days, 13 days, 14 days, 20 days, 24 days, or 32 days). The stability of the salts was evaluated based on the formation of the main degradation products as determined by HPLC analysis and the % potency (or assay) of the API, after specific time periods in the stability chamber. The effect of the addition of solvents, such as water, ethanol and isopropyl alcohol, was also studied.

[2] = Release of bupropion base from the salt
Description: It was previously observed that when 150 mg of bupropion HCl was tested for its release of bupropion, the base value that was released was 130 mg. However, when 150 mg of bupropion HBr was tested, the base value released was only 112 mg. Thus, the amount of bupropion HBr had to be increased in order to increase the base value from 112 mg to 130 mg, which was the target.

[3] = Qualitative solubility screening; details: thermodynamic from solid, 50 mg in 4 mL, read-out: Solubility at Room Temp (RT)
Description: Bupropion hydrobromide (50 mg) was introduced in 4 mL of solvent under stirring for about 1 hour at room temperature. See Table 41 for the qualitative solubility data.

In the case of `Br.CC(NC(C)(C)C)C(=O)c1cccc(Cl)c1` (stereo not drawn) [Bupropion hydrobromide, 3′-chloro-2-t-butylamino-1-propiophenone hydrobromide], the “amount of degradation products compared with other bupropion salts” value [1] is reported as “least amount of degradation products”, the “base value that was released” value ([2]; 150 mg of the salt tested) is reported as 112 mg and the “base value that was released” value ([2]; 174 mg of the salt tested) is reported as 130 mg. For the same compound, the solubility ([3]; organic solvent or mixture, solvent 1,2-Dimethoxy Ethane) was < 12.5 mg/mL, the solubility ([3]; organic solvent or mixture, solvent 1-Butanol) was > 12.5 mg/mL and the solubility ([3]; organic solvent or mixture, solvent 1-Methyl-2-Pyrrolidone) was > 12.5 mg/mL. For the same compound, the solubility ([3]; organic solvent or mixture, solvent 1-Octanol) was < 12.5 mg/mL, the solubility ([3]; organic solvent or mixture, solvent 1-Propanol) was > 12.5 mg/mL and the solubility ([3]; organic solvent or mixture, solvent 2-Methoxy Ethanol) was > 12.5 mg/mL. The solubility ([3]; organic solvent or mixture, solvent 2-Methyl-1-Propanol) was > 12.5 mg/mL, the solubility ([3]; organic solvent or mixture, solvent 2-Propanol) was > 12.5 mg/mL and the solubility ([3]; organic solvent or mixture, solvent 3-Pentanone) was < 12.5 mg/mL. For the same compound, the solubility ([3]; organic solvent or mixture, solvent 4-Methyl-2-Pentanone) was < 12.5 mg/mL, the solubility ([3]; organic solvent or mixture, solvent (±)2-Butanol) was < 12.5 mg/mL and the solubility ([3]; organic solvent or mixture, solvent Acetone) was < 12.5 mg/mL. The solubility ([3]; organic solvent or mixture, solvent Acetonitrile) was > 12.5 mg/mL, the solubility ([3]; organic solvent or mixture, solvent Benzonitrile) was < 12.5 mg/mL and the solubility ([3]; organic solvent or mixture, solvent Benzyl Alcohol) was > 12.5 mg/mL. The solubility ([3]; organic solvent or mixture, solvent Chloroform) was > 12.5 mg/mL, the solubility ([3]; organic solvent or mixture, solvent Cyclohexane) was < 12.5 mg/mL and the solubility ([3]; organic solvent or mixture, solvent Dichloromethane) was > 12.5 mg/mL. For the same compound, the solubility ([3]; organic solvent or mixture, solvent Diethyl Carbonate) was < 12.5 mg/mL, the solubility ([3]; organic solvent or mixture, solvent Diethyl Ether) was < 12.5 mg/mL and the solubility ([3]; organic solvent or mixture, solvent Dimethil sulfoxyde) was > 12.5 mg/mL. The solubility ([3]; organic solvent or mixture, solvent Dimethyl Formamide) was > 12.5 mg/mL, the solubility ([3]; organic solvent or mixture, solvent Dioxane) was < 12.5 mg/mL and the solubility ([3]; organic solvent or mixture, solvent Ethanol) was > 12.5 mg/mL. The solubility ([3]; organic solvent or mixture, solvent Ethyl Acetate) was < 12.5 mg/mL, the solubility ([3]; organic solvent or mixture, solvent Ethyl Benzoate) was < 12.5 mg/mL and the solubility ([3]; organic solvent or mixture, solvent Ethyl Formate) was < 12.5 mg/mL. For the same compound, the solubility ([3]; organic solvent or mixture, solvent Iso-Propyl-Ether) was < 12.5 mg/mL, the solubility ([3]; organic solvent or mixture, solvent Isopropyl Acetate) was < 12.5 mg/mL and the solubility ([3]; organic solvent or mixture, solvent Mesitylene) was < 12.5 mg/mL. For the same compound, the solubility ([3]; organic solvent or mixture, solvent Methanol) was > 12.5 mg/mL, the solubility ([3]; organic solvent or mixture, solvent Methyl Benzoate) was < 12.5 mg/mL and the solubility ([3]; organic solvent or mixture, solvent Methyl Ethyl Ketone) was < 12.5 mg/mL. For the same compound, the solubility ([3]; organic solvent or mixture, solvent Methyl-Cyclohexan) was < 12.5 mg/mL, the solubility ([3]; organic solvent or mixture, solvent Nitrobenezene) was < 12.5 mg/mL and the solubility ([3]; organic solvent or mixture, solvent Nitromethane) was > 12.5 mg/mL. For the same compound, the solubility ([3]; organic solvent or mixture, solvent Propyl Acetate) was < 12.5 mg/mL, the solubility ([3]; organic solvent or mixture, solvent Tert-Butanol) was < 12.5 mg/mL and the solubility ([3]; organic solvent or mixture, solvent Tetrahydrofuran) was < 12.5 mg/mL. The solubility ([3]; organic solvent or mixture, solvent Toluene) was < 12.5 mg/mL, the solubility ([3]; organic solvent or mixture, solvent n-Hexan) was < 12.5 mg/mL and the solubility ([3]; organic solvent or mixture, solvent n-Hexane) was < 12.5 mg/mL. For the same compound, the solubility ([3]; organic solvent or mixture, solvent p-Xylene) was < 12.5 mg/mL, the solubility ([3]; organic solvent or mixture, solvent t-Butyl Methyl Ether) was < 12.5 mg/mL and the solubility ([3]; water, solvent Water) was > 12.5 mg/mL.
